The values below come from ChEMBL document CHEMBL3871297, “Squarate-based carbocyclic nucleosides: Syntheses, computational analyses and anticancer/antiviral evaluation” (2017).

Common to all, as to type: functional
Test [1] is described as follows: Cytotoxicity against human PC3 cells assessed as cell growth at 10 uM after 2 days by SRB assay relative to control. The conditions noted are these: PC-3, 48 h, read-out: Activity.
A short description of test [2]: Cytotoxicity against human DU145 cells assessed as cell growth at 10 uM after 2 days by SRB assay relative to control. The settings on record: DU-145, 48 h, read-out: Activity. In general terms: The SRB assay estimates cell density from bound dye.
The nature of test [3]: Cytotoxicity against human UACC62 cells assessed as cell growth at 10 uM after 2 days by SRB assay relative to control. The settings on record: UACC-62, 48 h, read-out: Activity.
A short description of test [4]: Cytotoxicity against human ACHN cells assessed as cell growth at 10 uM after 2 days by SRB assay relative to control. The settings on record: 48 h, read-out: Activity.
The nature of test [5]: Cytotoxicity against human OVCAR5 cells assessed as cell growth at 10 uM after 2 days by SRB assay relative to control. The settings on record: OVCAR-5, 48 h, read-out: Activity.
The nature of test [6]: Cytotoxicity against human OVCAR4 cells assessed as cell growth at 10 uM after 2 days by SRB assay relative to control. The settings on record: OVCAR-4, 48 h, read-out: Activity.
The nature of test [7]: Cytotoxicity against human OVCAR3 cells assessed as cell growth at 10 uM after 2 days by SRB assay relative to control. The settings on record: OVCAR-3, 48 h, read-out: Activity.
Test [8] is described as follows: Cytotoxicity against human MDA-MB-231 cells assessed as cell growth at 10 uM after 2 days by SRB assay relative to control. The conditions noted are these: MDA-MB-231, 48 h, read-out: Activity.
A short description of test [9]: Cytotoxicity against human HCT116 cells assessed as cell growth at 10 uM after 2 days by SRB assay relative to control. The settings on record: HCT-116, 48 h, read-out: Activity.
A short description of test [10]: Cytotoxicity against human COLO205 cells assessed as cell growth at 10 uM after 2 days by SRB assay relative to control. The conditions noted are these: COLO 205, 48 h, read-out: Activity.
The nature of test [11]: Cytotoxicity against human NCI-H322M cells assessed as cell growth at 10 uM after 2 days by SRB assay relative to control. The settings on record: 48 h, read-out: Activity.
Test [12] in a line: Cytotoxicity against human HOP92 cells assessed as cell growth at 10 uM after 2 days by SRB assay relative to control. The conditions noted are these: HOP-92, 48 h, read-out: Activity.
Test [13] in a line: Cytotoxicity against human SNB19 cells assessed as cell growth at 10 uM after 2 days by SRB assay relative to control. The settings on record: SNB-19, 48 h, read-out: Activity.
Test [14] in a line: Cytotoxicity against human U251 cells assessed as cell growth at 10 uM after 2 days by SRB assay relative to control. The settings on record: U-251, 48 h, read-out: Activity.
Test [15] can be described thus: Cytotoxicity against human A498 cells assessed as cell growth at 10 uM after 2 days by SRB assay relative to control. The settings on record: A498, 48 h, read-out: Activity.
A short description of test [16]: Cytotoxicity against human BT549 cells assessed as cell growth at 10 uM after 2 days by SRB assay relative to control. The settings on record: BT-549, 48 h, read-out: Activity.
Test [17] is described as follows: Cytotoxicity against human HeLa cells assessed as reduction in cell viability cell at 300 uM after 24 hrs by MTT assay.

Structures are written as SMILES.

Turning to `O=c1c(O)c(N[C@H]2C=C[C@@H](CO)C2)c1=O`, the growth at 10 µM in test [1] turned out to be 110%; in test [2] it was 120%; in test [3] it was 118%; in test [4], 108%; in [5], 108%; in test [6], 102%. The growth at 10 µM in test [7] was found to be 122%; in test [8] it was 150%; in test [9], 108%; in test [10], 134%; in test [11] it was 120%; in [12] it was 121%. In addition, the growth at 10 µM is 105% in test [13] and 112% in test [14].
As for `COc1c(N[C@H]2C=C[C@@H](CO)C2)c(=O)c1=O`, the growth at 10 µM amounted to 101% in test [1]; 117% in test [2]; 101% in [3]; 104% in [4]; 105% in test [15]; 100% in test [5]. Besides, the growth at 10 µM turned out to be 109% in test [6]; 105% in [7]; 110% in test [8]; 110% in test [16]; 95.7% in [9]; 141% in test [10]. For the same compound, the growth at 10 µM worked out at 108% in [11], 111% in test [12], 106% in test [13] and 103% in [14].
With `Nc1c(N[C@H]2C=C[C@@H](CO)C2)c(=O)c1=O`, the growth at 10 µM was determined as 103% in test [1]; 98.3% in [3]; 103% in test [4]; 114% in test [15]; 106% in [5]; 111% in test [6]. Also, the growth at 10 µM stood at 113% in test [8]; 115% in test [16]; 108% in test [9]; 121% in test [10]; 106% in test [11]; 104% in test [12]. Besides, the results for the growth at 10 µM in [13] and in test [14] were 110% and 103%, respectively. Moreover, the inhibition at 300 µM in [17] was 50%.

Usually inhibition stands for the percentage by which the read-out fell short of the control.
